Measurements: PMC3272785 (2011)

How the values were obtained:
[1] = biological target: T1, yeast cytosine deaminase (yCD) (Saccharomyces cerevisiae, UniProt Q12178); test: fluorometric titration; assay type: binding
T1 sequence (Q12178 6-158): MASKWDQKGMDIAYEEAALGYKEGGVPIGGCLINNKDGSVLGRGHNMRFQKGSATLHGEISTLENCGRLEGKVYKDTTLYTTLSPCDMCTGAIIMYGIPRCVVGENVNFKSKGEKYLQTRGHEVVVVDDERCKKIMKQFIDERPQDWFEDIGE

[2] = biological target: T2, yeast cytosine deaminase (yCD) (Saccharomyces cerevisiae, UniProt Q12178, E64D); test: radiometric 5FC deamination inhibition assay; assay type: biochemical
T2 sequence (Q12178 6-158 E64D): T1 sequence (Q12178 6-158)

**Q.** For `Oc1ncc(F)cn1` [5FPy, 5-fluoro-1H-pyrimidin-2-one], which Kd [1] is on record?
**A.** 0.65 ± 0.08 µM

**Q.** What about the Ki [2] of the same molecule?
**A.** 1060 ± 60 µM
